Laboratory results taken from US20040127739A1, “Novel n-p-propargyloxyphenethyl-thioacetic acid amides” (priority 2001, published 2004).

Key:
Format in all cases: in vivo
Phytophthora [1] = test: Action against Phytophthora on tomato plants (residual-protective / systemic); details: untreated plants showed pathogen attack of 80% to 100%, read-out: inhibition of fungal infestations
Method: Action Against Phytophthora on Tomato Plants
(§1) a) Residual-protective Action
(§2) After a cultivation period of 3 weeks, tomato plants are sprayed with a spray mixture (0.02% active ingredient) prepared from a wettable powder formulation of the test compound. After 48 hours, the treated plants are infected with a sporangia suspension of the fungus. Fungus infestation is evaluated after incubation of the infected plants for 5 days at 90-100% relative humidity and +20° C.
as §2, with “watered” for “sprayed”, “ingredient based on the volume of the soil)” for “ingredient)”, “compound. […]” for “compound.”, “96” for “48”, “4” for “5”

Plasmopara viticola = test: Action against Plasmopara viticola on vines (residual-protective / residual-curative); details: vine seedlings, untreated plants showed pathogen attack of 80% to 100%, read-out: inhibition of fungal infestations
Method: Action Against Plasmopara viticola on Vines a) Residual-protective Action
Vine seedlings are sprayed at the 4- to 5-leaf stage with a spray mixture (0.02% active ingredient) prepared from a wettable powder formulation of the test compound. After 24 hours, the treated plants are infected with a sporangia suspension of the fungus. Fungus infestation is evaluated after incubation for 6 days at 95-100% relative humidity and +20° C. […]
b) Residual-curative Action
Vine seedlings are infected at the 4- to 5-leaf stage with a sporangia suspension of the fungus. After incubation for 24 hours in a humidity chamber at 95-100% relative humidity and +20° C., the infected plants are dried and sprayed with a spray mixture (0.02% active ingredient) prepared from a wettable powder formulation of the test compound. After the spray coating has dried, the treated plants are placed in the humidity chamber again. Fungus infestation is evaluated 6 days after infection.

Phytophthora [2] = test: Action against Phytophthora on potato plants (residual-protective / systemic); details: potato plants (Bintje variety), untreated plants showed pathogen attack of 80% to 100%, read-out: inhibition of fungal infestations
Method: Action Against Phytophthora on Potato Plants
as §1
(§3) 2-3 week old potato plants (Bintje variety) are sprayed with a spray mixture (0.02% active ingredient) prepared from a wettable powder formulation of the test compound. After 48 hours, the treated plants are infected with a sporangia suspension of the fungus. Fungus infestation is evaluated after incubation of the infected plants for 4 days at 90-100% relative humidity and +20° C.
as §3, with “watered” for “sprayed”, “ingredient based on the volume of the soil)” for “ingredient)”, “compound. […]” for “compound.”

SMILES	inhibition at 200 ppm (Phytophthora [1])	inhibition at 200 ppm (Plasmopara viticola)	inhibition at 200 ppm (Phytophthora [2])
C#CCOc1ccc(CCNC(=S)C(OCC#C)c2ccc(Cl)cc2)cc1OC (stereo not shown) [Compound A1.01, 2-(4-Chloro-phenyl)-N-[2-(3-methoxy-4-prop-2-ynyloxy-phenyl)-ethyl]-2-(prop-2-ynyloxy)-thioacetamide]	80 to 100%	80 to 100%	80 to 100%
C#CCOc1ccc(CCNC(=S)C(OCC#C)c2ccc(Br)cc2)cc1OC (stereo not shown) [Compound A1.02, 2-(4-bromo-phenyl)-N-[2-(3-methoxy-4-prop-2-ynyloxy-phenyl)-ethyl]-2-(prop-2-ynyloxy)-thioacetamide]	80 to 100%	80 to 100%	80 to 100%
C#CCOc1ccc(CCNC(=S)C(OC(C)=O)c2ccc(Cl)cc2)cc1OC (stereo not shown) [Compound A1.03, 2-acetoxy-2-(4-chloro-phenyl)-N-[2-(3-methoxy-4-prop-2-ynyloxy-phenyl)-ethyl]-thioacetamide]	80 to 100%	80 to 100%	80 to 100%
C#CCOc1ccc(CCNC(=S)C(OC(C)=O)c2ccc(Br)cc2)cc1OC (stereo not shown) [Compound A1.04, 2-acetoxy-2-(4-bromo-phenyl)-N-[2-(3-methoxy-4-prop-2-ynyloxy-phenyl)-ethyl]-thioacetamide]	–	–	80 to 100%
C#CCOc1ccc(CCNC(=S)C(O)c2ccc(Cl)cc2)cc1OC (stereo not shown) [Compound A2.01, 2-(4-Chloro-phenyl)-2-hydroxy-N-[2-(3-methoxy-4-prop-2-ynyloxy-phenyl)-ethyl]-thioacetamide]	80 to 100%	80 to 100%	80 to 100%
C#CCOc1ccc(CCNC(=S)C(O)c2ccc(Br)cc2)cc1OC (stereo not shown) [Compound A2.02, 2-(4-bromo-phenyl)-2-hydroxy-N-[2-(3-methoxy-4-prop-2-ynyloxy-phenyl)-ethyl]-thioacetamide]	80 to 100%	80 to 100%	80 to 100%
